In patent US20220142888A1, “COMPOSITION FOR IMPROVING SKIN CONDITIONS” (NEOPHARM CO., LTD., priority 2020, published 2022):

Experiments:
[1] = system: human β-defensin-3 (hBD-3); experiment: Expression of antimicrobial peptide BD-3 in human epidermal keratinocytes, real-time PCR; type: cell-based; settings: NHEKs, 1% sample (in H2O), 24 hours, gene level, FIG. 3
Description: (§1) In order to confirm the effect of enhancing the skin immunity and defense of each of Examples and Comparative Example of the present invention, the activities of peptide LL-37 (cathelicidin-related antimicrobial peptide (CAMP)), human β-defensin-2 (hBD-2), and human β-defensin-3 (hBD-3) having antimicrobial efficacy were confirmed.
(§2) In order for the confirmation, human epidermal keratinocytes (NHEKs) were dispensed into a 96-well plate, and the cells were cultured under cell culture conditions for 24 hours. Thereafter, the cells were treated with a control, DMSO, and a 1% sample (in H2O) of each of Examples and Comparative Example, and the cells were additionally cultured for 24 hours. A real-time PCR method was performed to determine LL-37, BD-2, and BD-3 at a gene-level. The test procedure is as follows.
(§3) SuperPrep™ cell lysis and RT Kit for qPCR (TOYOBO, SCQ-101) were used for RNA isolation and cDNA synthesis. The cells from which the medium was removed were washed once with phosphate-buffered saline (PBS), 50 μl of a cell lysis mixture (including gDNA remover) was added and reacted for 5 minutes, and then, a stop solution was added. […] QuantiTect primer assays of Qiagen were used in the experiment as a primer, and the expression levels of LL-37, BD-2, and BD-3 in the samples were quantified as GADPH and compared with each other. […]

[2] = system: human β-defensin-2 (hBD-2); experiment: Expression of antimicrobial peptide BD-2 in human epidermal keratinocytes, real-time PCR; type: cell-based; settings: NHEKs, 1% sample (in H2O), 24 hours, gene level, FIG. 2
Description: as §1, §2, §3

[3] = system: LL-37 (cathelicidin-related antimicrobial peptide (CAMP)); experiment: Expression of antimicrobial peptide LL-37 in human epidermal keratinocytes, real-time PCR; type: cell-based; settings: NHEKs, 1% sample (in H2O), 24 hours, gene level, FIG. 1
Description: as §1, §2, §3

desmoglein1 (DSG1) gene = experiment: Expression of desmoglein1 (DSG1) gene in UVB-irradiated NHEKs, Taqman real-time PCR; type: cell-based, human; settings: UVB 25 mJ/cm^2, 10 nM sample, 4th day of culture, FIG. 6
Description: In order to confirm the effect of strengthening the skin barrier of each of Examples and Comparative Example of the present invention, an expression level of DSG1 gene as an intercellular binding factor was confirmed.
Specifically, normal human epidermal keratinocytes (NHEKs) were cultured in a 6-well plate incubator. After 24 hours, the keratinocyes were washed with phosphate-buffered saline (PBS), irradiation with UVB (25 mJ/cm^2) was performed, a 10 nM sample of each of Examples and Comparative Example was added to the NHEK culture medium, and then, culture was performed. The cells were harvested on the 4th day of culture, RNA was separated, cDNA was synthesized by a reverse transcriptional polymerase chain reaction (RT-PCR), Taqman real-time PCR was performed using the synthesized cDNA, and then, the expression level of the DSG1 gene as a keratinocyte differentiation marker was measured.

filaggrin = experiment: Expression level of filaggrin in keratinocytes, real-time PCR; type: cell-based; settings: 24 hours, versus untreated control, FIG. 5
Description: In order to measure the effect of promoting the expression of moisturizing factors of each of Examples and Comparative Example of the present invention, the expression levels of filaggrin and loricrin were measured.
Specifically, keratinocytes purchased from Invitrogen Corporation were cultured in EpiLife (keratinocyte growth medium) containing a supplement (human keratinocyte growth supplement (HKGS)) for a predetermined time, and then, the cells were subcultured three times and then used. The keratinocytes which were subcultured three times were cultured to a confluence of 70 to 80% in a 6-well plate, each of the wells was separately treated with each of the samples, and then, the keratinocytes were cultured for a total of 24 hours. RNA of the keratinocytes was extracted from the cultured cells using easy BLUE, and then, cDNA synthesis was performed using SuperScript reverse transcriptase III kit. Real-time PCR for comparing the genes was performed using 2× TaqMan universal PCR mixture (10 μl), 20× TaqMan expression assay mix (1 μl), cDNA (50 ng), and a primer (Filaggrin: Hs00856927_g1*, Loricrin: Hs01894962_s1*) and a 7500 Fast Real-Time PCR system. In addition, a sample treated with 10 μM IGF-1 was used as a positive control group, and a control that was not treated with the sample was used as a comparison group.

Row | SMILES | expression level of antimicrobial peptide BD-3 relative to that in Example 2 [1] [%] | expression level of antimicrobial peptide BD-2 relative to that in Example 2 [2] [%] | expression level of antimicrobial peptide LL-37 relative to that in Example 2 [3] [%] | expression level of desmoglein1, increase relative to the expression level in the UVB treatment group (desmoglein1 (DSG1) gene) [times] | expression level of filaggrin, increase relative to the expression level in the control (filaggrin) [times]
1 | CCCCCC(=O)N[C@@H](Cc1ccc(O)cc1)C(=O)OC [Comparative Example 1, Defensamide] | 40 | 33 | 40 |  | 
2 | CCCCCCCCCC(=O)NC(CO)C(=O)OCC (stereo not shown) [Example 1, N-(1-oxodecyl)serine ethyl ester] |  |  |  | ≥ 4.1 | ≥ 4.3
3 | CCCCCCCCCC(=O)NC(CO)C(=O)OC (stereo not shown) [Example 2, N-(1-oxodecyl)serine methyl ester] |  |  |  | ≥ 4.5 | ≥ 3.8
